Source: ChEMBL document CHEMBL1122995, “1-[3-(Diarylamino)propyl]piperidines and related compounds, potential antipsychotic agents with low cataleptogenic profiles” (J Med Chem, 1985)
“And” between values parts separate entries of the source, which are not always exact repeats. Equal values may be shown once.

Legend:
Rattus norvegicus [1] = organism: Rattus norvegicus; test: Effective dose determined by suppression of high base-line self-stimulation in adult male hooded rats; type: functional
Mus musculus = test: Lowest active dose for the inhibition of locomotor screen falloff test, ip; type: functional
Rattus norvegicus [2] = organism: Rattus norvegicus; test: Effective dose determined by catalepsy test in rat; type: functional
[3] = target: Dopamine receptor (Rattus norvegicus) (UniProt P25115+P19020+P30729+P18901+P61169); test: Inhibition of [3H]haloperidol binding to dopamine receptors in rat striatal membranes at 10e-8 M.; type: cell membranes; conditions: Membrane
Dopamine receptor = test: Inhibition of [3H]haloperidol binding to dopamine receptors in rat striatal membranes.
Rattus norvegicus [4] = organism: Rattus norvegicus; test: Effective dose against [3H]haloperidol binding in rat striatal membranes; type: functional; conditions: Striatum, Membrane

Oc1nc2ccccc2n1C1CCN(CCCN(c2ccccc2)c2ccccc2)CC1
ED50 (Rattus norvegicus [1]): 13.2 mg/kg | LAD (Mus musculus): 30 mg/kg

O=C1NCN(c2ccccc2)C12CCN(CCCN(c1ccccc1)c1ccc(F)cc1)CC2
ED50 (Rattus norvegicus [1]): 11.7 mg/kg | ED50 (Rattus norvegicus [2]): 156 mg/kg | LAD (Mus musculus): 30 mg/kg

Oc1nc2ccccc2n1C1CCN(CCCN(c2ccccc2)c2cccc(Cl)c2)CC1
LAD (Mus musculus): >100 mg/kg

OCCN1CCN(CCCN(c2ccc(F)cc2)c2ccc(F)cc2)CC1
LAD (Mus musculus): >100 mg/kg

OC1(c2ccc(Cl)cc2)CCN(CCCN(c2ccc(F)cc2)c2ccc(F)cc2)CC1
ED50 (Rattus norvegicus [1]): 4.42 mg/kg | LAD (Mus musculus): 30 mg/kg

O=C(c1ccc(Cl)cc1)C1CCN(CCCN(c2ccc(F)cc2)c2ccc(F)cc2)CC1
LAD (Mus musculus): >100 mg/kg

Oc1nc2cc(Cl)ccc2n1C1CCN(CCCN(c2ccc(F)cc2)c2ccc(F)cc2)CC1
LAD (Mus musculus): >100 mg/kg

Oc1nc2ccccc2n1C1CCN(CCCN(c2ccccc2)c2ccc(F)cc2)CC1
inhibition [3]: 84% | ED50 (Rattus norvegicus [1]): 8.37 mg/kg | ED50 (Rattus norvegicus [2]): 76 mg/kg | LAD (Mus musculus): 30 mg/kg

O=[N+]([O-])c1ccc(N(CCCN2CCC(n3c(O)nc4ccccc43)CC2)c2ccccc2)cc1
inhibition [3]: 17% | LAD (Mus musculus): 100 mg/kg

COc1ccccc1N1CCN(CCCN(c2ccc(F)cc2)c2ccc(F)cc2)CC1
ED50 (Rattus norvegicus [1]): 5.5 mg/kg | ED50 (Rattus norvegicus [2]): 160 mg/kg | IC50 (Dopamine receptor): 13 nM | LAD (Mus musculus): 30 mg/kg

Fc1ccc(N(CCCN2CCN(c3ccccc3)CC2)c2ccc(F)cc2)cc1
LAD (Mus musculus): 100 mg/kg

O=C1NCN(c2ccccc2)C12CCN(CCCCN(c1ccc(F)cc1)c1ccc(F)cc1)CC2
LAD (Mus musculus): >100 mg/kg

Oc1nc2ccccc2n1C1CCN(CCCN(c2ccc(F)cc2)c2ccccc2F)CC1
inhibition [3]: 92% | ED50 (Rattus norvegicus [1]): 11.3 mg/kg | ED50 (Rattus norvegicus [2]): 156 mg/kg | LAD (Mus musculus): 30 mg/kg

O=c1[nH]c2ccccc2n1C1CCN(CCCC(c2ccc(F)cc2)c2ccc(F)cc2)CC1 [PIMOZIDE]
LAD (Mus musculus): <10 mg/kg and 30 mg/kg

O=C1NCN(c2ccccc2)C12CCN(CCCN(c1ccc(F)cc1)c1cccc(Cl)c1)CC2
ED50 (Rattus norvegicus [1]): 12.7 mg/kg | ED50 (Rattus norvegicus [2]): 289 mg/kg | LAD (Mus musculus): 30 mg/kg

Cc1cc2nc(O)n(C3CCN(CCCN(c4ccc(F)cc4)c4ccc(F)cc4)CC3)c2cc1C
ED50 (Rattus norvegicus [1]): > 16 mg/kg | LAD (Mus musculus): 30 mg/kg

Oc1nc2ccccc2n1C1=CCN(CCCN(c2ccc(F)cc2)c2ccc(F)cc2)CC1
ED50 (Rattus norvegicus [1]): 5.55 mg/kg | ED50 (Rattus norvegicus [2]): 105 mg/kg | LAD (Mus musculus): 30 mg/kg | ED50 (Rattus norvegicus [4]): 0.32 nM

O=C1NCN(c2ccccc2)C12CCN(CCCC(c1ccc(F)cc1)c1ccc(F)cc1)CC2
ED50 (Rattus norvegicus [1]): 1.28 mg/kg | ED50 (Rattus norvegicus [2]): 10.8 mg/kg | LAD (Mus musculus): <10 mg/kg

Fc1ccc(N(CCCN2CCC(n3c(S)nc4ccccc43)CC2)c2ccc(F)cc2)cc1
LAD (Mus musculus): >100 mg/kg

O=C1NCN(c2ccccc2)C12CCN(CCN(c1ccc(F)cc1)c1ccc(F)cc1)CC2
LAD (Mus musculus): 100 mg/kg

Oc1nc2cc(Cl)c(Cl)cc2n1C1CCN(CCCN(c2ccc(F)cc2)c2ccc(F)cc2)CC1
LAD (Mus musculus): >100 mg/kg

CN1CCN(C2=Nc3cc(Cl)ccc3Nc3ccccc32)CC1 [CLOZAPINE]
ED50 (Rattus norvegicus [1]): 14.3 mg/kg | ED50 (Rattus norvegicus [2]): 133 mg/kg | LAD (Mus musculus): 10 mg/kg

O=C1NCN(c2ccccc2)C12CCN(CCCN(c1ccc(F)cc1)c1ccc(F)cc1)CC2
ED50 (Rattus norvegicus [1]): 1.65 mg/kg | ED50 (Rattus norvegicus [2]): 81.2 mg/kg | IC50 (Dopamine receptor): 0.61 nM | LAD (Mus musculus): 5 mg/kg
